What was measured:
CCRF-CEM = experiment: Antitumor activity against human CCRF-CEM cells assessed as cell growth inhibition at 10 uM incubated for 48 hrs by sulforhodamine B assay; type: functional; details: read-out: GI
HL-60(TB) = experiment: Antitumor activity against human HL-60(TB) cells assessed as cell growth inhibition at 10 uM incubated for 48 hrs by sulforhodamine B assay; type: functional; details: read-out: GI
K562 = experiment: Antitumor activity against human K562 cells assessed as cell growth inhibition at 10 uM incubated for 48 hrs by sulforhodamine B assay; type: functional; details: read-out: GI
MOLT-4 = experiment: Antitumor activity against human MOLT4 cells assessed as cell growth inhibition at 10 uM incubated for 48 hrs by sulforhodamine B assay; type: functional; details: read-out: GI
RPMI-8226 = experiment: Antitumor activity against human RPMI8226 cells assessed as cell growth inhibition at 10 uM incubated for 48 hrs by sulforhodamine B assay; type: functional; details: read-out: GI
SR = experiment: Antitumor activity against human SR cells assessed as cell growth inhibition at 10 uM incubated for 48 hrs by sulforhodamine B assay; type: functional; details: read-out: GI
EKVX = experiment: Antitumor activity against human EKVX cells assessed as cell growth inhibition at 10 uM incubated for 48 hrs by sulforhodamine B assay; type: functional; details: read-out: GI
HOP-92 = experiment: Antitumor activity against human HOP92 cells assessed as cell growth inhibition at 10 uM incubated for 48 hrs by sulforhodamine B assay; type: functional; details: read-out: GI
NCI-H226 = experiment: Antitumor activity against human NCI-H226 assessed as cell growth inhibition at 10 uM incubated for 48 hrs by sulforhodamine B assay; type: functional; details: read-out: GI
NCI-H23 = experiment: Antitumor activity against human NCI-H23 cells assessed as cell growth inhibition at 10 uM incubated for 48 hrs by sulforhodamine B assay; type: functional; details: read-out: GI
NCI-H460 = experiment: Antitumor activity against human NCI-H460 assessed as cell growth inhibition at 10 uM incubated for 48 hrs by sulforhodamine B assay; type: functional; details: read-out: GI
NCI-H522 = experiment: Antitumor activity against human NCI-H522 cells assessed as cell growth inhibition at 10 uM incubated for 48 hrs by sulforhodamine B assay; type: functional; details: read-out: GI
COLO 205 = experiment: Antitumor activity against human COLO205 cells assessed as cell growth inhibition at 10 uM incubated for 48 hrs by sulforhodamine B assay; type: functional; details: read-out: GI
HCC 2998 = experiment: Antitumor activity against human HCC2998 cells assessed as cell growth inhibition at 10 uM incubated for 48 hrs by sulforhodamine B assay; type: functional; details: read-out: GI
HCT-116 = experiment: Antitumor activity against human HCT116 cells assessed as cell growth inhibition at 10 uM incubated for 48 hrs by sulforhodamine B assay; type: functional; details: read-out: GI
HCT-15 = experiment: Antitumor activity against human HCT15 cells assessed as cell growth inhibition at 10 uM incubated for 48 hrs by sulforhodamine B assay; type: functional; details: read-out: GI
HT-29 = experiment: Antitumor activity against human HT-29 cells assessed as cell growth inhibition at 10 uM incubated for 48 hrs by sulforhodamine B assay; type: functional; details: read-out: GI
KM12 = experiment: Antitumor activity against human KM12 cells assessed as cell growth inhibition at 10 uM incubated for 48 hrs by sulforhodamine B assay; type: functional; details: read-out: GI
SF-268 = experiment: Antitumor activity against human SF268 cells assessed as cell growth inhibition at 10 uM incubated for 48 hrs by sulforhodamine B assay; type: functional; details: read-out: GI
SF-295 = experiment: Antitumor activity against human SF295 cells assessed as cell growth inhibition at 10 uM incubated for 48 hrs by sulforhodamine B assay; type: functional; details: read-out: GI
SNB-19 = experiment: Antitumor activity against human SNB-19 cells assessed as cell growth inhibition at 10 uM incubated for 48 hrs by sulforhodamine B assay; type: functional; details: read-out: GI
SNB-75 = experiment: Antitumor activity against human SNB-75 cells assessed as cell growth inhibition at 10 uM incubated for 48 hrs by sulforhodamine B assay; type: functional; details: read-out: GI
U-251 = experiment: Antitumor activity against human U251 cells assessed as cell growth inhibition at 10 uM incubated for 48 hrs by sulforhodamine B assay; type: functional; details: read-out: GI
LOX IMVI = experiment: Antitumor activity against human LOX IMVI cells assessed as cell growth inhibition at 10 uM incubated for 48 hrs by sulforhodamine B assay; type: functional; details: read-out: GI
Malme-3M = experiment: Antitumor activity against human MALME-3M cells assessed as cell growth inhibition at 10 uM incubated for 48 hrs by sulforhodamine B assay; type: functional; details: read-out: GI
M14 = experiment: Antitumor activity against human M14 cells assessed as cell growth inhibition at 10 uM incubated for 48 hrs by sulforhodamine B assay; type: functional; details: read-out: GI
MDA-MB-435 = experiment: Antitumor activity against human MDA-MB-435 cells assessed as cell growth inhibition at 10 uM incubated for 48 hrs by sulforhodamine B assay; type: functional; details: read-out: GI
SK-MEL-28 = experiment: Antitumor activity against human SK-MEL-28 cells assessed as cell growth inhibition at 10 uM incubated for 48 hrs by sulforhodamine B assay; type: functional; details: read-out: GI
UACC-62 = experiment: Antitumor activity against human UACC-62 cells assessed as cell growth inhibition at 10 uM incubated for 48 hrs by sulforhodamine B assay; type: functional; details: read-out: GI
IGROV-1 = experiment: Antitumor activity against human IGROV1 cells assessed as cell growth inhibition at 10 uM incubated for 48 hrs by sulforhodamine B assay; type: functional; details: read-out: GI
OVCAR-3 = experiment: Antitumor activity against human OVCAR-3 cells assessed as cell growth inhibition at 10 uM incubated for 48 hrs by sulforhodamine B assay; type: functional; details: read-out: GI
OVCAR-4 = experiment: Antitumor activity against human OVCAR-4 cells assessed as cell growth inhibition at 10 uM incubated for 48 hrs by sulforhodamine B assay; type: functional; details: read-out: GI
OVCAR-8 = experiment: Antitumor activity against human OVCAR-8 cells assessed as cell growth inhibition at 10 uM incubated for 48 hrs by sulforhodamine B assay; type: functional; details: read-out: GI
NCI/ADR-RES = experiment: Antitumor activity against human NCI/ADR-RES cells assessed as cell growth inhibition at 10 uM incubated for 48 hrs by sulforhodamine B assay; type: functional; details: read-out: GI
SK-OV-3 = experiment: Antitumor activity against human SK-OV-3 cells assessed as cell growth inhibition at 10 uM incubated for 48 hrs by sulforhodamine B assay; type: functional; details: read-out: GI
786-0 = experiment: Antitumor activity against human 786-0 cells assessed as cell growth inhibition at 10 uM incubated for 48 hrs by sulforhodamine B assay; type: functional; details: read-out: GI
A498 = experiment: Antitumor activity against human A498 cells assessed as cell growth inhibition at 10 uM incubated for 48 hrs by sulforhodamine B assay; type: functional; details: read-out: GI
ACHN = experiment: Antitumor activity against human ACHN cells assessed as cell growth inhibition at 10 uM incubated for 48 hrs by sulforhodamine B assay; type: functional; details: read-out: GI
RXF 393 = experiment: Antitumor activity against human RXF 393 cells assessed as cell growth inhibition at 10 uM incubated for 48 hrs by sulforhodamine B assay; type: functional; details: read-out: GI
SN12C = experiment: Antitumor activity against human SN12C cells assessed as cell growth inhibition at 10 uM incubated for 48 hrs by sulforhodamine B assay; type: functional; details: read-out: GI
UO-31 = experiment: Antitumor activity against human UO-31 cells assessed as cell growth inhibition at 10 uM incubated for 48 hrs by sulforhodamine B assay; type: functional; details: read-out: GI
PC-3 = experiment: Antitumor activity against human PC-3 cells assessed as cell growth inhibition at 10 uM incubated for 48 hrs by sulforhodamine B assay; type: functional; details: read-out: GI
MCF7 = experiment: Antitumor activity against human MCF7 cells assessed as cell growth inhibition at 10 uM incubated for 48 hrs by sulforhodamine B assay; type: functional; details: read-out: GI
MDA-MB-231 = experiment: Antitumor activity against human MDA-MB-231/ATCC cells assessed as cell growth inhibition at 10 uM incubated for 48 hrs by sulforhodamine B assay; type: functional; details: read-out: GI
Hs-578T = experiment: Antitumor activity against human HS 578T cells assessed as cell growth inhibition at 10 uM incubated for 48 hrs by sulforhodamine B assay; type: functional; details: read-out: GI
BT-549 = experiment: Antitumor activity against human BT-549 cells assessed as cell growth inhibition at 10 uM incubated for 48 hrs by sulforhodamine B assay; type: functional; details: read-out: GI
MDA-MB-468 = experiment: Antitumor activity against human MDA-MB-468 cells assessed as cell growth inhibition at 10 uM incubated for 48 hrs by sulforhodamine B assay; type: functional; details: read-out: GI
SW-620 = experiment: Antitumor activity against human SW620 cells assessed as cell growth inhibition at 10 uM incubated for 48 hrs by sulforhodamine B assay; details: SW-620, 48 h, read-out: GI

Oc1ccccc1-c1nc2c3ccccc3c3ccccc3c2[nH]1
inhibition of growth at 10 µM (CCRF-CEM): < 10% | inhibition of growth at 10 µM (HL-60(TB)): < 10% | inhibition of growth at 10 µM (K562): 12.1% | inhibition of growth at 10 µM (MOLT-4): < 10% | inhibition of growth at 10 µM (RPMI-8226): 13.3% | inhibition of growth at 10 µM (SR): 10.8% | inhibition of growth at 10 µM (EKVX): 19.4% | inhibition of growth at 10 µM (HOP-92): 16.4% | inhibition of growth at 10 µM (NCI-H226): 11.6% | inhibition of growth at 10 µM (NCI-H23): 10.7% | inhibition of growth at 10 µM (NCI-H460): < 10% | inhibition of growth at 10 µM (NCI-H522): < 10% | inhibition of growth at 10 µM (COLO 205): < 10% | inhibition of growth at 10 µM (HCC 2998): < 10% | inhibition of growth at 10 µM (HCT-116): 12.3% | inhibition of growth at 10 µM (HCT-15): < 10% | inhibition of growth at 10 µM (HT-29): < 10% | inhibition of growth at 10 µM (KM12): < 10% | inhibition of growth at 10 µM (SF-268): < 10% | inhibition of growth at 10 µM (SF-295): < 10% | inhibition of growth at 10 µM (SNB-19): < 10% | inhibition of growth at 10 µM (SNB-75): 11.1% | inhibition of growth at 10 µM (U-251): < 10% | inhibition of growth at 10 µM (LOX IMVI): < 10% | inhibition of growth at 10 µM (Malme-3M): < 10% | inhibition of growth at 10 µM (M14): < 10% | inhibition of growth at 10 µM (MDA-MB-435): < 10% | inhibition of growth at 10 µM (SK-MEL-28): < 10% | inhibition of growth at 10 µM (UACC-62): 10.1% | inhibition of growth at 10 µM (IGROV-1): 23.5% | inhibition of growth at 10 µM (OVCAR-3): < 10% | inhibition of growth at 10 µM (OVCAR-4): < 10% | inhibition of growth at 10 µM (OVCAR-8): < 10% | inhibition of growth at 10 µM (NCI/ADR-RES): < 10% | inhibition of growth at 10 µM (SK-OV-3): < 10% | inhibition of growth at 10 µM (786-0): < 10% | inhibition of growth at 10 µM (A498): < 10% | inhibition of growth at 10 µM (ACHN): 11.7% | inhibition of growth at 10 µM (RXF 393): < 10% | inhibition of growth at 10 µM (SN12C): 24.4% | inhibition of growth at 10 µM (UO-31): 37.9% | inhibition of growth at 10 µM (PC-3): 11.8% | inhibition of growth at 10 µM (MCF7): 26.3% | inhibition of growth at 10 µM (MDA-MB-231): 23.8% | inhibition of growth at 10 µM (Hs-578T): < 10% | inhibition of growth at 10 µM (BT-549): < 10% | inhibition of growth at 10 µM (MDA-MB-468): < 10% | inhibition of growth at 10 µM (SW-620): < 10%
